# From patent publication US20240376151A1, “STAPLED PEPTIDES AND METHODS THEREOF” (FOG PHARMACEUTICALS, INC., priority 2022, published 2024)
# Numbered stars: 1 amine (or outer) side, 2 acyl side, 3 side chain; on linkers, the order of the positions; unused ones are H or OH. Bridge positions count the residues as written; N and C are the ends. Peptide text beside a SMILES is read from it. Phenylene(1,4-NHCOCH2)2 = O=C(C[*:1])Nc1ccc(NC(=O)C[*:2])cc1
# Tests used:
# β-catenin:MDM2 complex = biological target: T1, β-catenin:MDM2 complex (Homo sapiens, UniProt P35222+Q00987); assay: FP analysis of the β-catenin:MDM2 complex; assay type: biochemical; conditions: read-out: EC50 of cooperative interaction between MDM2 and the Armadillo domain of β-catenin
# T1 construct: 6×His-yBBr-TEV (N); 6×His-TEV (N, cleaved yes); made in house; host or cells: E. coli BL21 (DE3) pLysS (beta-catenin); E. coli BL21 (DE3) (MDM2)
# β-catenin:MDM4 complex = biological target: T2, β-catenin:MDM4 complex (Homo sapiens, UniProt O15151+P35222, C17S); assay: FP analysis of the β-catenin:MDM4 complex; assay type: biochemical; conditions: direct FP assay
# T2 construct: 6×His-yBBr-TEV (N); 6×His-yBBr-3C (N, cleaved yes); made in house; host or cells: E. coli BL21 (DE3) pLysS (beta-catenin); E. coli BL21 (DE3) (MDM4)
# T2 sequence (P35222 134-665): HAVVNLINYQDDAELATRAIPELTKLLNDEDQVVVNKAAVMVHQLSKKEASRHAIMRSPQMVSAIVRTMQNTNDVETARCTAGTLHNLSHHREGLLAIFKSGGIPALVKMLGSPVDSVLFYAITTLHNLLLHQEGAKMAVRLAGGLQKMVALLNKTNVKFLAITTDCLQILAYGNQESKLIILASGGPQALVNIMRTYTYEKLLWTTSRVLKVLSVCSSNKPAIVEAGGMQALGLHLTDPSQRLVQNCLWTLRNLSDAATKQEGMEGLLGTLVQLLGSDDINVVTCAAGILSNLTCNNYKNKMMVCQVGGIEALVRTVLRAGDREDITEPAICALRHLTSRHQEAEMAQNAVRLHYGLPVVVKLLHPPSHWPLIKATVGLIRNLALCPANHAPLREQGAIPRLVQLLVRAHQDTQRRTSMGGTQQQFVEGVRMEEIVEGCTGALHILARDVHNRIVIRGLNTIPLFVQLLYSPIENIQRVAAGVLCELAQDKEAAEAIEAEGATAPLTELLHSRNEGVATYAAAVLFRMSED
# T2 sequence (O15151 14-111 C17S): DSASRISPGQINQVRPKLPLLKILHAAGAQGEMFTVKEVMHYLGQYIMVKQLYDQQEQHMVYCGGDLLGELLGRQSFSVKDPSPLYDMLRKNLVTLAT
# MDM4 = biological target: T3, MDM4 (Homo sapiens, UniProt O15151, C17S); assay: Direct FP ternary complex formation, fluorescent MDM4 and beta-catenin; assay type: biochemical; conditions: fluorescent p53-binding domain of MDM4
# T3 construct: 6×His-yBBr-3C (N, cleaved yes); made in house; host or cells: E. coli BL21 (DE3)
# T3 sequence (O15151 14-111 C17S): T2 sequence (O15151 14-111 C17S)
# VHL-ELOBC = biological target: T4, VHL-ELOBC (Homo sapiens, UniProt P40337); assay: Naive Library Presenter Screening (phage, NGS), VHL-ELOBC; assay type: binding; conditions: VHL target concentration 1000 nM
# T4 construct: VHL (Uniprot ID: P40337, residues 54-213) with an N-terminal 6×His-TEV tag; 6×His-TEV (N); made in house; host or cells: E. coli BL21 (DE3)
# MDM2 and β-catenin = biological target: T5, MDM2 and β-catenin (Homo sapiens, UniProt P35222+Q00987); assay: Direct FP ternary complex formation, fluorescent MDM2 and beta-catenin; assay type: biochemical; conditions: fluorescent p53-binding domain of MDM2
# T5 construct: 6×His-TEV (N, cleaved yes); 6×His-yBBr-TEV (N); made in house; host or cells: E. coli BL21 (DE3) (MDM2); E. coli BL21 (DE3) pLysS (β-catenin)
# T5 sequence (Q00987 17-111 limits assumed, one chain of several): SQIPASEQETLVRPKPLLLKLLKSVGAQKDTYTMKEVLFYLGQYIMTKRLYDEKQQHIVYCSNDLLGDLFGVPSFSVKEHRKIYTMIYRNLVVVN
# T1 sequence (Q00987 17-111 limits assumed, one chain of several): as above
# T4 sequence (P40337 54-213): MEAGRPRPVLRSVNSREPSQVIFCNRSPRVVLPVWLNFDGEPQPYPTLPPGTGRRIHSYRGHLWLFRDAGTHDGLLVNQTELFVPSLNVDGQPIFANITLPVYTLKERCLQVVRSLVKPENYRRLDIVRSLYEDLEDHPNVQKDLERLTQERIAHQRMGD
# T4 sequence (Q15370 1-104 partner limits assumed): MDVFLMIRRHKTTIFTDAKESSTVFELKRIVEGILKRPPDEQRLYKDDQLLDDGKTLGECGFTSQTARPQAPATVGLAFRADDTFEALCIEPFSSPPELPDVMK
# T4 sequence (Q15369 17-112 partner limits assumed): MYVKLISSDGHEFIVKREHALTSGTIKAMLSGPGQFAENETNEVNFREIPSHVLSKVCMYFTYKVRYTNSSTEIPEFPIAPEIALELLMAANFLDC
Compound,EC50 (β-catenin:MDM2 complex) [nM],promotion of interaction between MDM4 and β-catenin (β-catenin:MDM4 complex),ternary complex formation with MDM4 (MDM4),interaction data at Target Concentration 1000 (VHL-ELOBC),"ternary complex formation, MDM2 and β-catenin (MDM2 and β-catenin)"
"CC[C@H](C)[C@H](NC(=O)[C@H](C)NC(=O)[C@H](CCC(N)=O)NC(=O)[C@H](CCC(N)=O)NC(=O)[C@H](CCC(=O)O)NC(=O)[C@H](CCSC)NC(=O)[C@@H]1CCCN1C(C)=O)C(=O)N[C@H]1CSCC(=O)Nc2ccc(cc2)NC(=O)CSC[C@@H](C(=O)N[C@@H](CC(C)C)C(=O)N[C@@H](C)C(=O)N[C@@H](CC(=O)O)C(=O)N[C@@H](CC(=O)O)C(=O)N[C@@H](Cc2c[nH]c3ccccc23)C(=O)N[C@H](C(N)=O)[C@@H](C)O)NC(=O)[C@H](CCSC)NC(=O)[C@H](Cc2c[nH]c3ccccc23)NC(=O)[C@H](C)NC(=O)[C@H](C)NC(=O)[C@H](CCC(N)=O)NC(=O)[C@H](Cc2ccccc2)NC1=O [Helicon H329] (Ac-PMEQQAICFQAAWMCLADDWT-NH2; linker 8-15 via Phenylene(1,4-NHCOCH2)2)",10 to 100,not between MDM4 and β-catenin,–,–,–
CC(=O)N1CCC[C@H]1C(=O)N[C@@H](Cc1c[nH]c2ccccc12)C(=O)N[C@@H](CCCCN)C(=O)N[C@@H](Cc1ccc(O)cc1)C(=O)N[C@@H](CCC(=O)O)C(=O)N[C@@H](CCC(N)=O)C(=O)N[C@H](C(=O)N[C@H]1CSCC(=O)Nc2ccc(cc2)NC(=O)CSC[C@@H](C(=O)N[C@@H](CC(C)C)C(=O)N[C@@H](CO)C(=O)N[C@@H](CC(=O)O)C(=O)N[C@@H](CC(=O)O)C(=O)N[C@@H](Cc2c[nH]c3ccccc23)C(=O)N[C@@H](CC(=O)O)C(N)=O)NC(=O)[C@H](CCC(N)=O)NC(=O)[C@H](Cc2c[nH]c3ccccc23)NC(=O)[C@H](C)NC(=O)[C@H](C)NC(=O)[C@H](CCC(N)=O)NC(=O)[C@H](Cc2ccc(O)cc2)NC1=O)C(C)C [Helicon H330],–,–,did not occur,–,–
DPAWYACMDAARVCDRT,–,–,–,0,–
CC[C@H](C)[C@H](NC(=O)[C@@H]1CSCC(=O)Nc2ccc(cc2)NC(=O)CSC[C@H](NC(=O)[C@H](CC(=O)O)NC(=O)[C@H](CC(N)=O)NC(=O)[C@H](C)NC(=O)[C@H](C)NC(=O)[C@H](CO)NC(=O)[C@@H](NC(=O)[C@@H]2CCCN2C(C)=O)[C@@H](C)CC)C(=O)N[C@@H](Cc2ccccc2)C(=O)N[C@@H](CCCCN)C(=O)N[C@@H](C)C(=O)N[C@@H](C)C(=O)N[C@@H](Cc2c[nH]c3ccccc23)C(=O)N[C@@H](CCC(N)=O)C(=O)N1)C(=O)N[C@H](C(=O)N[C@@H](Cc1c[nH]c2ccccc12)C(=O)N[C@@H](CC(C)C)C(=O)N[C@@H](Cc1c[nH]cn1)C(=O)N[C@@H](CCC(N)=O)C(N)=O)[C@@H](C)CC [Helicon H332],10 to 100,not between MDM4 and β-catenin,did not occur,–,could promote ternary complex formation
DPAWWYCLDAAYDCDHT,–,–,–,0,–
CC(=O)N1CCC[C@H]1C(=O)N[C@@H](CC(N)=O)C(=O)N[C@@H](CC(C)C)C(=O)N[C@H](C(=O)NCC(=O)N[C@@H](C)C(=O)N[C@@H](CC(=O)O)C(=O)N[C@H]1CSCC(=O)Nc2ccc(cc2)NC(=O)CSC[C@@H](C(=O)N[C@@H](CC(C)C)C(=O)N[C@@H](CCC(N)=O)C(=O)N[C@@H](Cc2ccccc2)C(=O)N[C@@H](CC(C)C)C(=O)N[C@@H](Cc2c[nH]c3ccccc23)C(=O)N[C@@H](CC(=O)O)C(N)=O)NC(=O)[C@H](CCC(N)=O)NC(=O)[C@H](Cc2c[nH]c3ccccc23)NC(=O)[C@H](C)NC(=O)[C@H](C)NC(=O)[C@@H]2CCCN2C(=O)[C@H](Cc2ccccc2)NC1=O)[C@@H](C)O [Helicon H334],10 to 100,not between MDM4 and β-catenin,did not occur,–,could promote ternary complex formation
